Source: patent US9216216B2, “LprG as a chaperone of immune adjuvants” (Case Western Reserve University, priority 2009, dated 2015)
“Also recorded” adds a separate entry of the source.

Legend:
[1] = test system: bone marrow-derived macrophages; type: cell-based, mice
TLR2 [2] = target: T1, TLR2 (Homo sapiens, UniProt O60603+Q15399); type: cell-based
T1 construct: YFP; expressed in transfected cells

TLR2 [3] = target: T1, TLR2; type: cell-based; remark: listed apart in the source

T1 sequence (O60603 21-784, species assumed): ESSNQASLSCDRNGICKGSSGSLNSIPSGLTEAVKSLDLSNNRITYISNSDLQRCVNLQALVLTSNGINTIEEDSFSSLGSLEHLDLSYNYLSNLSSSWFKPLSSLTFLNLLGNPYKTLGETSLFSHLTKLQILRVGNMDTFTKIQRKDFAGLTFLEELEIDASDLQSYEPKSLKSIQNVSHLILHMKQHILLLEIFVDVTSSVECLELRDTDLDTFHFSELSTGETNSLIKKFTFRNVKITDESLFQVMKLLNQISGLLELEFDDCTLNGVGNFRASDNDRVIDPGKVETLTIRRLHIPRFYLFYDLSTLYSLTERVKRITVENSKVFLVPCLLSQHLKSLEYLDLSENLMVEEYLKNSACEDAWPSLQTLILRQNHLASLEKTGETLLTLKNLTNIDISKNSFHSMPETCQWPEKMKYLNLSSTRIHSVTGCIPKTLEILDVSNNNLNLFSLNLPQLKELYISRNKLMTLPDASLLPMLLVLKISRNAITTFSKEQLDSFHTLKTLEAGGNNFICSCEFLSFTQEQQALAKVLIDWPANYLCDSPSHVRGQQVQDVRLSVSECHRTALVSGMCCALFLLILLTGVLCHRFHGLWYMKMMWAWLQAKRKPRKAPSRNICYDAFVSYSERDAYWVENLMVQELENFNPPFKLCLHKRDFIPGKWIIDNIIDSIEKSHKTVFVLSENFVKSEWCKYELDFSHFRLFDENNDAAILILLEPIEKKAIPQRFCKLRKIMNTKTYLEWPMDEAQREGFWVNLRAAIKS
T1 sequence (Q15399 25-786, species assumed): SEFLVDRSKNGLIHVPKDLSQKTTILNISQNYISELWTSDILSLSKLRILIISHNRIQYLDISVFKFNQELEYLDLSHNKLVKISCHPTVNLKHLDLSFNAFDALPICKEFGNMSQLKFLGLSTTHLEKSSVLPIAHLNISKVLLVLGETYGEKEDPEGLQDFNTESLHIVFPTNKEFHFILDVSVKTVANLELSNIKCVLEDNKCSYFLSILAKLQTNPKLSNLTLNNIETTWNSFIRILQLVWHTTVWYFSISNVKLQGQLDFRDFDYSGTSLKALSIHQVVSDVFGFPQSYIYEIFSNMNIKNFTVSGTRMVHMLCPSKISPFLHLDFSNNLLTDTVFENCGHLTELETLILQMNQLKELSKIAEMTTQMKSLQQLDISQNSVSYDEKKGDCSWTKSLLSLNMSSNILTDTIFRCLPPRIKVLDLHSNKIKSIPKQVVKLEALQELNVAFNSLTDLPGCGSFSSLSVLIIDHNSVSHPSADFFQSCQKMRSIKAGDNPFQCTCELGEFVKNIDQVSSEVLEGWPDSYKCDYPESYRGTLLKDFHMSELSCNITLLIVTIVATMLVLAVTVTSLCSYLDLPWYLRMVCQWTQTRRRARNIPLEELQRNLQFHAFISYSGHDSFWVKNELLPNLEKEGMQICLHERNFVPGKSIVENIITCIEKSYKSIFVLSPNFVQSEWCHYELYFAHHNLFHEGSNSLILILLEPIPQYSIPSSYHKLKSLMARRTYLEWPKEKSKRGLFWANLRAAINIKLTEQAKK

| Molecule | TLR dependence of macrophage TNFα response [1] | other results |
| --- | --- | --- |
| CpG ODN 1826 | intact in knockout cell lines; also recorded: All macrophage types responded | – |
| FSL-1 | dependent on TLR2 and TLR6, but not TLR1 | – |
| Acylated LprG-V91W: acylated LprG with the V91W mutation of the putative glycolipid binding site (protein, UniProt P9WK45 27-236, looked up, variant V91W) Lipoarabinomannan carrier …: CSSGSKPSGGPLPDAKPLVEEATAQTKALKSAHMVLTVNGKIPGLSLKTLSGDLTTNPTAATGNWKLTLGGSDIDADFVVFDGILYATLTPNQWSDFGPAADIYDPAQVLNPDTGLANVLANFADAKAEGRDTINGQNTIRISGKVSAQAVNQIAPPFNATQPVPATVWIQETGDHQLAQAQLDRGSGNSVQMTLSKWGEKVQVTKPPVS | – | TLR2 agonist activity of acylated protein (TLR2 [2]): significantly less potent than wild-type acylated LprG |
| LprG: Mtb lipoprotein LprG (SEQ ID NO: 2), recombinant 6×His-tagged acylated form (protein, listed as Mycobacterium smegmatis, 6xHis tag; acylated) MLGMQTRRRLSAVFASLTLATALIAGCSSGSKQSGAPLPDPTSLVKQSADATKNVKSVHLVLSIQGKISGLPIKTLTGDLTTTPATAAKGNATITLGGSDIDANFVVVDGTLYATLTPNKWSDFGKASDIYDVSVLLNPDNGLGNALANFSNAKAEGRETINGQSTIRISGNVSADAVNKIMPQFNATQPVPSTVWVQETGDHQLVQANLQKSSGNSVQVTLSNWGEQVQVTKPPVSS | – | TLR2 agonist activity (IL-8 response) (TLR2 [3]): dose-dependent IL-8 response; also recorded: more potent TLR2 agonist than a homologous Mtb lipoprotein, LprA |
